In BindingDB's records for doi:10.1021/acschembio.5b00452 (Oregon Health & Science University, 2015):

Experiments:
N-glycosylase/DNA lyase [1] = molecular target: T1, N-glycosylase/DNA lyase (Homo sapiens, UniProt O15527); assay: Gel-based Cleavage Assay
Method: Substrate (5 µL, 50 nM) was added to bring the final volume to 10 µL. The reaction was incubated 30 min at 37 °C, quenched by the addition of 10 µL of formamide, and put on ice. […] Band intensities were quantified using the Image Studio Lite Software (LI-COR).

N-glycosylase/DNA lyase [2] = molecular target: T1, N-glycosylase/DNA lyase; assay: Fluorescence-based Assay; conditions: pH 7.5; 37 °C
Method: The fluorescence-based assay outlined in Figure 2 a was performed in black, low volume 384-well plates with a fi nal volume of 10 µL per well. Nine uL of assay buffer (20 mM Tris-HCl, 100 mM KCl, 0.1% BSA, 0.01% Tween-20, pH 7.5) was added toeach well, followed by the addition of 1 uL of DMSO (control) or 50 µM compound in DMSO. […] Control wells containing just substrate or just substrate + enzyme were used to calculate Z values for each plate.

T1 sequence (O15527 whole entry): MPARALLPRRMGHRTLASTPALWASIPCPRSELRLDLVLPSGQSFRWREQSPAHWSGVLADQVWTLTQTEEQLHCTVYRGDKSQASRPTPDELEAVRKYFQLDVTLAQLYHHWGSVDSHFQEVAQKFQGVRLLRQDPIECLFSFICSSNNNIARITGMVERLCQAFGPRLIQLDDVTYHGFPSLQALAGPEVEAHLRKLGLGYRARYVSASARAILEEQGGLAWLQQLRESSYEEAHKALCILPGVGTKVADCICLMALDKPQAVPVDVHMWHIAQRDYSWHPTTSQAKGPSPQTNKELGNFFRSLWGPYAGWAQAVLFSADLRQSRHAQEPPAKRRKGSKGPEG

Question: With `NNC(=O)c1sc2cccc(Cl)c2c1Cl` [3,4‐Dichloro‐1‐benzothiophene‐2‐carbohydrazide (08)] as the compound, how does the IC50 (N-glycosylase/DNA lyase [1]) read?
Answer: 220 nM

Question: What about the IC50 (N-glycosylase/DNA lyase [2]) of the same compound?
Answer: 0.35 µM

Question: For `COc1cc(C)c(S(=O)(=O)n2cc(C)nc2-c2ccccc2)cc1C` [1‐(4‐Methoxy‐2,5‐dimethylbenzenesulfonyl)‐4‐methyl‐2‐phenylimidazole (0105)], which IC50 (N-glycosylase/DNA lyase [2]) is on record?
Answer: 4.15 µM

Question: For `C=CCC/C(C)=N\NC(=O)c1cccc(Br)c1` [3‐Bromo‐N'‐[(2Z)‐hex‐5‐en‐2‐ylidene]benzohydrazide (0155)], which IC50 (N-glycosylase/DNA lyase [2]) is on record?
Answer: 3.78 µM

Question: How did the IC50 (N-glycosylase/DNA lyase [2]) turn out when `NNC(=O)c1ccc(Br)cc1` [Benzoylhydrazine, P‐bromo (0151-Hy)] was run?
Answer: 0.39 µM

Question: `CCCN1CCC(=NNC(=O)c2ccc(Cl)cc2Cl)CC1` [2,4‐Dichloro‐N'‐(1‐propylpiperidin‐4‐ ylidene)benzohydrazide (0181)] was tested. Which IC50 (N-glycosylase/DNA lyase [2]) did it give?
Answer: 4.56 µM

Question: For `NNC(=O)c1ccncc1` [4-pyridinecarbohydrazide(Isoniazid)], which IC50 (N-glycosylase/DNA lyase [1]) is on record?
Answer: > 50000 nM

Question: What about the IC50 (N-glycosylase/DNA lyase [2]) of the same compound?
Answer: > 50 µM

Question: How did the IC50 (N-glycosylase/DNA lyase [1]) turn out when `O=C(NN=C1CCCCC1)c1cc2ccccc2cc1O` [N'‐Cyclohexylidene‐3‐hydroxynaphthalene‐2‐carbohydrazide (0158)] was run?
Answer: 340 nM

Question: And the IC50 (N-glycosylase/DNA lyase [2])?
Answer: 0.29 µM

Question: For `NC(=O)c1ccc(Br)cc1` [4-Bromo-benzamide], which IC50 (N-glycosylase/DNA lyase [2]) is on record?
Answer: > 50 µM

Question: For `C/C(=N\NC(=O)c1cc2ccccc2cc1O)c1ccc2c(c1)OCO2` [N'‐[(1E)‐1‐(2H‐1,3‐benzodioxol‐5‐yl)ethylidene]‐3‐hydroxynaphthalene‐2‐carbohydrazide (0179)], which IC50 (N-glycosylase/DNA lyase [2]) is on record?
Answer: 7.17 µM

Question: With `O=C(CCNNC(=O)c1ccncc1)NCc1ccccc1` [Nialamide] as the compound, how does the IC50 (N-glycosylase/DNA lyase [2]) read?
Answer: > 50 µM

Question: With `NNC(=O)c1sc2ccccc2c1Cl` [3‐Chloro‐1‐benzothiophene‐2‐carbohydrazide (O8-Cl)] as the compound, how does the IC50 (N-glycosylase/DNA lyase [2]) read?
Answer: 0.3 µM

Question: How did the IC50 (N-glycosylase/DNA lyase [2]) turn out when `NNC(=O)COc1cccc2ccccc12` [2‐(Naphthalen‐1‐yloxy)acetohydrazide (040)] was run?
Answer: 1.56 µM

Question: `CC(Oc1cccc(Cl)c1)C(=O)NN` (stereo not given) [2‐(3‐Chlorophenoxy)propanehydrazide (01)] was tested. Which IC50 (N-glycosylase/DNA lyase [2]) did it give?
Answer: 3.38 µM

Question: With `CCCC/C(C)=N\NC(=O)c1cccc(Br)c1` [3‐Bromo‐N'‐[(2Z)‐hexan‐2‐ylidene]benzohydrazide (0156)] as the compound, how does the IC50 (N-glycosylase/DNA lyase [2]) read?
Answer: 2.13 µM

Question: How did the IC50 (N-glycosylase/DNA lyase [2]) turn out when `NNc1nncc2ccccc12` [NSC_3637] was run?
Answer: > 50 µM

Question: With `Cc1cc(C(=O)NNCc2ccccc2)no1` [ISOCARBOXAZID] as the compound, how does the IC50 (N-glycosylase/DNA lyase [2]) read?
Answer: > 50 µM

Question: With `Cc1cc(OCC(=O)NN)cc(C)c1Cl` [2‐(4‐Chloro‐3,5‐dimethylphenoxy)acetohydrazide (0159)] as the compound, how does the IC50 (N-glycosylase/DNA lyase [2]) read?
Answer: 1.53 µM
